Data on eight compounds can be found in publication PMC12369021, “Biased Signaling and Its Role in the Genesis of Short- and Long-Acting β2‑Adrenoceptor Agonists” (Biochemistry, 2025).

Assay [1] deals with β2AR. The note with it: cited from earlier work.
Assay [2] deals with T1, β2AR (Homo sapiens, UniProt P07550). Nature of the assay: nanoBRET mGs protein recruitment assay in T-REx-293-β2AR-nLuc cells. Format: cell-based. Particulars: for EC50: mean ± SEM. In general terms: In BRET a luciferase serves as donor, and the signal depends on an acceptor being close.
Target sequence in this assay (P07550 whole entry): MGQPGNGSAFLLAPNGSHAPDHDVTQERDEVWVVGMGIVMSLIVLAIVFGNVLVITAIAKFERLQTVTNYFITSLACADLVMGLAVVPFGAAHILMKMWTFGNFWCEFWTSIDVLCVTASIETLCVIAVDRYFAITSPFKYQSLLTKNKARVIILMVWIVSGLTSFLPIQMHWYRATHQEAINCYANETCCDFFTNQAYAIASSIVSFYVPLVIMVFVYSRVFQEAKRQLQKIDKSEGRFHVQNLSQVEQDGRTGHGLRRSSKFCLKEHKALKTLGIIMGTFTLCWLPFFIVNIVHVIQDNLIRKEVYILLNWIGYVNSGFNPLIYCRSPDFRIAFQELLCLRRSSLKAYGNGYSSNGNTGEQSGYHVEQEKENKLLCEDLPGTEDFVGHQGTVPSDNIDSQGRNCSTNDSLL
The target of assay [3] is T1, β2AR. Nature of the assay: nanoBRET β-arrestin2 recruitment assay in T-REx-293-β2AR-nLuc cells. The class given is cell-based. The note with it: for EC50: mean ± SEM.
Target sequence in this assay (P07550 whole entry): as above
Target sequence in this assay (P32121 whole entry partner): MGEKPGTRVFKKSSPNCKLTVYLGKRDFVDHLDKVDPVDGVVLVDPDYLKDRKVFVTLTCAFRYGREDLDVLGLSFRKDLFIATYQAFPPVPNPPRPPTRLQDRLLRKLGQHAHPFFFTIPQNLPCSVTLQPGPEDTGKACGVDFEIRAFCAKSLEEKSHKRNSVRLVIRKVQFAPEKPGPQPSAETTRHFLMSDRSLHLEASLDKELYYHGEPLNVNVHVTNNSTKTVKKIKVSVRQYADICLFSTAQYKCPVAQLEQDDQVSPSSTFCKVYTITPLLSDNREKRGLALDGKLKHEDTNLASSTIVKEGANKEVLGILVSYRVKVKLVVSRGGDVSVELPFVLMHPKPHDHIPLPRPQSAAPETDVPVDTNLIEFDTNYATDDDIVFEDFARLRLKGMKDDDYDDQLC
In assay [4] the test system is β2AR. The note with it: for log bias factor (mGs/Arr2): ΔΔlog(Emax/EC50) relative to reference formoterol, from peak responses. The method, then: To determine the relative effectiveness of the compounds to activate the different signaling pathways, the difference between the log(E max/EC50) values was calculated.
Using the estimates of agonist activity Δlog(E max/EC50) for the test and reference agonists, pathway log bias was calculated as follows: 3 ΔΔlog(Emax/EC50)=Δlog(Emax/EC50)P1−Δlog(Emax/EC50)P2 where pathway 1 (P1) is mGs-dependent recruitment and pathway 2 (P2) is β-arrestin2 recruitment. Bias factors were calculated by taking the antilog of the ΔΔlog(E max/EC50).
Error on the pathway bias was calculated using the following formula: 4 SEMΔΔlog(Emax/EC50)=SEMΔlog(Emax/EC50)P12+SEMΔlog(Emax/EC50)P22

Setting [5] is: read-out: mGs Emax at room temperature.
Where [6] appears, read: read-out: mGs Emax derived from AUC analysis.
Setting [7] is: read-out: β-arrestin2 Emax at room temperature.
[8] abbreviates: read-out: β-arrestin2 Emax derived from AUC analysis.
Where [9] appears, read: ΔΔlog(Emax/EC50) relative to formoterol, AUC-derived.

Like-named read-outs stand apart in the source and are kept apart here.

As a reminder, the Ki is the equilibrium dissociation constant of an inhibitor or competing ligand from its target. With `C=CCc1ccccc1OCC(O)CNC(C)C` (stereo not shown) [Alprenolol], the Ki in assay [1] was 0.000912 µM.
For `CC(Cc1ccc(O)cc1)NCC(O)c1cc(O)cc(O)c1` (stereo not shown) [Fenoterol, fenoterol], the Emax in assay [2] (read-out: mGs E max) was 77 ± 0.4%; in assay [2] (setting [5]), 73.9 ± 2.1%; in assay [2] (setting [6]), 76.7 ± 0.8%; in assay [3] (read-out: β-arrestin2 E max), 85 ± 2.5%; in assay [3] (setting [7]) it was 83.8 ± 7.1%; in assay [3] (setting [8]), 93.6 ± 8.1%. In addition, the “Log Bias Factor (mGs/Arr2) from AUC analysis” value in assay [4] (setting [9]) is recorded as 0.37 ± 0.05. Besides, the “log bias factor (mGs/Arr2)” value in assay [4] turned out to be 0.32 ± 0.11.
In the case of `COc1ccc(CC(C)NCC(O)c2ccc(O)c(NC=O)c2)cc1` (stereo not shown) [Formoterol], the “log bias factor (mGs/Arr2)” value in assay [4] came to 0 ± 0.10.
Turning to `CCC(NC(C)C)C(O)c1ccc(O)c(O)c1` (stereo not shown) [Isoetharine], the EC50 is 0.038 µM in assay [2] (AUC analysis, 37 °C, read-out: mGs pEC50 derived from AUC analysis (converted)); 0.0617 µM in assay [2] (peak response at 30 min, 37 °C, read-out: mGs pEC50 (converted)); 0.0135 µM in assay [2] (room temperature, 3 observations, read-out: mGs pEC50 at room temperature (converted)); 0.224 µM in assay [3] (AUC analysis, 37 °C, read-out: β-arrestin2 pEC50 derived from AUC analysis (converted)); 0.417 µM in assay [3] (peak response, 37 °C, read-out: β-arrestin2 pEC50 (converted)); 0.209 µM in assay [3] (room temperature, 3 observations, read-out: β-arrestin2 pEC50 at room temperature (converted)). In addition, the Emax in assay [2] (read-out: mGs E max) stood at 97.8 ± 1.4%; in assay [2] (setting [5]) it was 101 ± 2.8%; in assay [2] (setting [6]) it was 93.9 ± 1.7%; in assay [3] (read-out: β-arrestin2 E max) it was 112 ± 5.9%; in assay [3] (setting [7]), 116 ± 1.7%; in assay [3] (setting [8]) it was 103 ± 4.37%. Besides, the Ki in assay [1] is 1.58 µM. Moreover, in assay [4] (setting [9]), the “Log Bias Factor (mGs/Arr2) from AUC analysis” value is recorded as 0.79 ± 0.06. The “log bias factor (mGs/Arr2)” value in assay [4] was determined as 0.59 ± 0.13.
With `CC(C)NCC(O)c1ccc(O)c(O)c1` (stereo not shown) [Isoprenaline, isoprenaline], in assay [4], the “Log Bias Factor (mGs/Arr2) from AUC analysis” value was determined as 0.51 ± 0.07 and the “log bias factor (mGs/Arr2)” value worked out at 0.48 ± 0.14.
Take `CC(C)(C)NCC(O)c1ccc(O)c(CO)c1` (stereo not shown) [Salbutamol]: the “Log Bias Factor (mGs/Arr2) from AUC analysis” value in assay [4] (setting [9]) worked out at 1.65 ± 0.06. For the same compound, the “log bias factor (mGs/Arr2)” value in assay [4] came out at 1.42 ± 0.19.
As for `OCc1cc(C(O)CNCCCCCCOCCCCc2ccccc2)ccc1O` (stereo not shown) [Salmeterol], in assay [4], the “log bias factor (mGs/Arr2)” value is 0.53 ± 0.15.
In the case of `CC(C)(C)NCC(O)c1ccccc1Cl` (stereo not shown) [Tulobuterol], the Emax was 33.6 ± 0.6% in assay [2] (read-out: mGs E max), 41.9 ± 1.4% in assay [2] (setting [5]), 32.8 ± 0.4% in assay [2] (setting [6]) and 8.8 ± 1% in assay [3] (setting [7]).
